Reference: publication PMC8951328, “New Metabolites from the Marine Sponge Scopalina hapalia Collected in Mayotte Lagoon” (Marine Drugs, 2022)

Biological target: T1, yeast proteasome (Saccharomyces cerevisiae, UniProt P30656)
T1 construct: gene PRE2; yeast proteasome (TUM Groll group); with other subunits of the yeast proteasome
T1 sequence (P30656 76-287): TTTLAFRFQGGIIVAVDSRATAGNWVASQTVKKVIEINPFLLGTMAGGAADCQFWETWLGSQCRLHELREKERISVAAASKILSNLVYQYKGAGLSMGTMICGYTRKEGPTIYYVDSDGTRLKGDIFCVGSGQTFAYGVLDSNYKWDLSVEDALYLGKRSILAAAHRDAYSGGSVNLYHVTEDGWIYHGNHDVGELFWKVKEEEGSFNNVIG
Experiment: fluorescence intensity assay with Suc-Leu-Leu-Val-Tyr-AMC substrate
Type: biochemical

For `COc1ccc(C[C@H](NC(=O)[C@H](C)NC(=O)CN2CCOCC2)C(=O)N[C@@H](Cc2ccccc2)C(=O)[C@@]2(C)CO2)cc1` [ONX-0914], the IC50 was 0.0366 nM.
